Laboratory results: patent US11000033B2, “Ketone or oxime compound, and herbicide” (NISSAN CHEMICAL CORPORATION, priority 2014, dated 2021)

How the values were obtained:
Assay type in all cases: in vivo
Veronica persica = experiment: Test Example 5: herbicidal effect by foliage application, plastic box (symbol R); settings: 320 g/ha, 3 weeks after application
How it was run: (§1)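 Greenhouse foliar test: seedlings at 14 days, grown 25° C. to 30° C. in sterilized diluvial soil; compound applied as an aqueous dilution of an emulsion; response read 3 weeks after spraying.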

[1] = test system: Echinochloa crus-galli var. crus-galli; experiment: Test Example 3: herbicidal effect by foliage application, Wagner pot (symbol H); settings: application herbicide amount 320 g/ha
How it was run: (§2)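 Scoring took place 3 weeks after application, using fixed criteria. Plants had been raised from seed for 14 days at 25 to 30 °C in submerged alluvial soil before a diluted emulsion of the test compound was sprayed uniformly on the leaves.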

beet = experiment: Test Example 5: effect on crop by foliage application, plastic box (symbol f); settings: 320 g/ha, 3 weeks after application
How it was run: (§3)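 Greenhouse culture at 25° C. to 30° C. followed spot-like sowing into sterilized diluvial soil, with seed covered by roughly 1.5 cm of soil.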

Leptochloa chinensis = experiment: Test Example 3: herbicidal effect by foliage application, Wagner pot (symbol D); settings: application herbicide amount 320 g/ha
How it was run: as §2

Lolium multiflorum Lam. = experiment: Test Example 4: herbicidal effect by soil treatment (symbol K); settings: application herbicide amount 320 g/ha
How it was run: (§4)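 Seeds were sown in sterilized diluvial soil, covered with about 1.5 cm of soil, and the soil surface was sprayed with a water-diluted emulsion of the compound at a predetermined rate. Plants grew in a greenhouse at 25° C. to 30° C.; effects were scored visually 3 weeks after application.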

Digitaria ciliaris [2] = experiment: Test Example 5: herbicidal effect by foliage application, plastic box (symbol F); settings: 320 g/ha, 3 weeks after application
How it was run: as §1

Chenopodium album = experiment: Test Example 5: herbicidal effect by foliage application, plastic box (symbol O); settings: 320 g/ha, 3 weeks after application
How it was run: as §1

[3] = test system: Echinochloa crus-galli var. crus-galli; experiment: Test Example 4: herbicidal effect by soil treatment (symbol H); settings: application herbicide amount 320 g/ha
How it was run: as §4

rice plant = experiment: Test Example 5: effect on crop by foliage application, plastic box (symbol b); settings: 320 g/ha, 3 weeks after application
How it was run: as §3

Avena fatua = experiment: Test Example 5: herbicidal effect by foliage application, plastic box (symbol I); settings: 320 g/ha, 3 weeks after application
How it was run: as §1

Scirpus juncoides = experiment: Test Example 2: herbicidal activity, application during weed generation in submerged conditions (symbol B); settings: Table 23; application herbicide amount 320 g/ha; grade 0-5 by criteria of Test Example 1
How it was run: (§5)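 Read-out: herbicidal effect on each species rated on a visual scale 3 weeks after treatment. Plants were raised together from seed in flooded alluvial soil (4 cm water) at 25° C. to 30° C. and treated at one to two leaves by water-surface application of diluted emulsion.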

rapeseed = experiment: Test Example 4: effect on crop by soil treatment (symbol g); settings: application herbicide amount 320 g/ha
How it was run: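 Plants grew in a 25° C. to 30° C. greenhouse after spot-sowing of seeds, including beet, rapeseed, wheat and rice, into sterilized diluvial soil under roughly 1.5 cm of cover soil.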

Apera spica-venti = experiment: Test Example 4: herbicidal effect by soil treatment (symbol L); settings: application herbicide amount 320 g/ha
How it was run: as §4

Stellaria media = experiment: Test Example 5: herbicidal effect by foliage application, plastic box (symbol P); settings: 320 g/ha, 3 weeks after application
How it was run: as §1

Abutilon theophrasti = experiment: Test Example 4: herbicidal effect by soil treatment (symbol M); settings: application herbicide amount 320 g/ha
How it was run: as §4

Digitaria ciliaris [4] = experiment: Test Example 4: herbicidal effect by soil treatment (symbol F); settings: application herbicide amount 320 g/ha
How it was run: as §4

Amaranthus retroflexus [5] = experiment: Test Example 5: herbicidal effect by foliage application, plastic box (symbol N); settings: 320 g/ha, 3 weeks after application
How it was run: as §1

wheat = experiment: Test Example 5: effect on crop by foliage application, plastic box (symbol e); settings: 320 g/ha, 3 weeks after application
How it was run: as §3

Amaranthus retroflexus [6] = experiment: Test Example 4: herbicidal effect by soil treatment (symbol N); settings: application herbicide amount 320 g/ha
How it was run: as §4

[7] = test system: Echinochloa oryzacola Vasing.; experiment: Test Example 2: herbicidal activity, application during weed generation in submerged conditions (symbol A); settings: Table 23; application herbicide amount 320 g/ha; grade 0-5 by criteria of Test Example 1
How it was run: as §5

| Structure (SMILES) | R: Veronica persica, herbicidal effect grade (Veronica persica) | herbicidal effect on H (Echinochloa crus-galli var. crus-galli), grade 0-5 [1] | f: beet, effect on crop grade (beet) | herbicidal effect on D (Leptochloa chinensis), grade 0-5 (Leptochloa chinensis) | K: Lolium multiflorum Lam., herbicidal effect grade (Lolium multiflorum Lam.) | F: Digitaria ciliaris, herbicidal effect grade (Digitaria ciliaris [2]) | O: Chenopodium album, herbicidal effect grade (Chenopodium album) | H: Echinochloa crus-galli var. crus-galli, herbicidal effect grade [3] | b: directly sowed rice plant, effect on crop grade (rice plant) | I: Avena fatua, herbicidal effect grade (Avena fatua) | Herbicidal effect grade, B: Scirpus juncoides (Scirpus juncoides) | g: rapeseed, effect on crop grade (rapeseed) | L: Apera spica-venti, herbicidal effect grade (Apera spica-venti) | P: Stellaria media, herbicidal effect grade (Stellaria media) | M: Abutilon theophrasti, herbicidal effect grade (Abutilon theophrasti) | F: Digitaria ciliaris, herbicidal effect grade (Digitaria ciliaris [4]) | N: Amaranthus retroflexus, herbicidal effect grade (Amaranthus retroflexus [5]) | e: wheat, effect on crop grade (wheat) | N: Amaranthus retroflexus, herbicidal effect grade (Amaranthus retroflexus [6]) | Herbicidal effect grade, A: Echinochloa oryzacola Vasing. [7] |
| --- | --- | --- | --- | --- | --- | --- | --- | --- | --- | --- | --- | --- | --- | --- | --- | --- | --- | --- | --- | --- |
| CON=CC1CC(O)=C(c2c(C)cc(C)cc2C)C1=O (mixture of isomers) [3-001] | 0 (Herbicidal ratio of 5% or lower (almost no effect)) | 3 (Herbicidal ratio of 40% or higher and lower than 70%) | 0 (Herbicidal ratio of 5% or lower (almost no effect)) | 2 (Herbicidal ratio of 20% or higher and lower than 40%) | 4 (Herbicidal ratio of 70% or higher and lower than 90%) | 4 (Herbicidal ratio of 70% or higher and lower than 90%) | 0 (Herbicidal ratio of 5% or lower (almost no effect)) | 0 (Herbicidal ratio of 5% or lower (almost no effect)) | 4 (Herbicidal ratio of 70% or higher and lower than 90%) | 2 (Herbicidal ratio of 20% or higher and lower than 40%) | 0 (Herbicidal ratio of 5% or lower (almost no effect)) | 0 (Herbicidal ratio of 5% or lower (almost no effect)) | 5 (Herbicidal ratio of 90% or more (almost completely withered)) | 0 (Herbicidal ratio of 5% or lower (almost no effect)) | 0 (Herbicidal ratio of 5% or lower (almost no effect)) | 2 (Herbicidal ratio of 20% or higher and lower than 40%) | 0 (Herbicidal ratio of 5% or lower (almost no effect)) | 0 (Herbicidal ratio of 5% or lower (almost no effect)) | 0 (Herbicidal ratio of 5% or lower (almost no effect)) | 0 (Herbicidal ratio of 5% or lower (almost no effect)) |
| CON=C(C)C1CC(O)=C(c2c(C)cc(C)cc2C)C1=O (mixture of isomers) [3-002] | 0 (Herbicidal ratio of 5% or lower (almost no effect)) | 0 (Herbicidal ratio of 5% or lower (almost no effect)) | 0 (Herbicidal ratio of 5% or lower (almost no effect)) | 0 (Herbicidal ratio of 5% or lower (almost no effect)) | 0 (Herbicidal ratio of 5% or lower (almost no effect)) | 0 (Herbicidal ratio of 5% or lower (almost no effect)) | 0 (Herbicidal ratio of 5% or lower (almost no effect)) | 0 (Herbicidal ratio of 5% or lower (almost no effect)) | 3 (Herbicidal ratio of 40% or higher and lower than 70%) | 0 (Herbicidal ratio of 5% or lower (almost no effect)) | 0 (Herbicidal ratio of 5% or lower (almost no effect)) | 0 (Herbicidal ratio of 5% or lower (almost no effect)) | 0 (Herbicidal ratio of 5% or lower (almost no effect)) | 0 (Herbicidal ratio of 5% or lower (almost no effect)) | 0 (Herbicidal ratio of 5% or lower (almost no effect)) | 0 (Herbicidal ratio of 5% or lower (almost no effect)) | 0 (Herbicidal ratio of 5% or lower (almost no effect)) | 0 (Herbicidal ratio of 5% or lower (almost no effect)) | 0 (Herbicidal ratio of 5% or lower (almost no effect)) | 0 (Herbicidal ratio of 5% or lower (almost no effect)) |
| CON=C(C)CC1CC(O)=C(c2c(C)cc(-c3ccc(C(F)(F)F)cc3)cc2C)C1=O (mixture of isomers) [6-016] | 3 (Herbicidal ratio of 40% or higher and lower than 70%) | 5 (Herbicidal ratio of 90% or more (almost completely withered)) | 0 (Herbicidal ratio of 5% or lower (almost no effect)) | 5 (Herbicidal ratio of 90% or more (almost completely withered)) | 0 (Herbicidal ratio of 5% or lower (almost no effect)) | 5 (Herbicidal ratio of 90% or more (almost completely withered)) | 3 (Herbicidal ratio of 40% or higher and lower than 70%) | 4 (Herbicidal ratio of 70% or higher and lower than 90%) | 5 (Herbicidal ratio of 90% or more (almost completely withered)) | 4 (Herbicidal ratio of 70% or higher and lower than 90%) | 0 (Herbicidal ratio of 5% or lower (almost no effect)) | 0 (Herbicidal ratio of 5% or lower (almost no effect)) | 5 (Herbicidal ratio of 90% or more (almost completely withered)) | 0 (Herbicidal ratio of 5% or lower (almost no effect)) | 0 (Herbicidal ratio of 5% or lower (almost no effect)) | 5 (Herbicidal ratio of 90% or more (almost completely withered)) | 0 (Herbicidal ratio of 5% or lower (almost no effect)) | 0 (Herbicidal ratio of 5% or lower (almost no effect)) | 2 (Herbicidal ratio of 20% or higher and lower than 40%) | 3 (Herbicidal ratio of 40% or higher and lower than 70%) |
